# According to ChEMBL document CHEMBL5465560, “Selectivity Literature for EUbOPEN Chemogenomic Library” (2024):
# Legend:
# [1] = biological target: CDK6/cyclin D2 (Homo sapiens) (UniProt Q00534+P30279); test: Selectivity interaction (Millipore kinase profiler) EUB0000124b CDK6; type: protein-complex assay; details: at 10 µM
# [2] = biological target: Serine/threonine-protein kinase N1 (Homo sapiens, UniProt Q16512); test: Selectivity interaction (ProQinase) EUB0000171b PKN1
# [3] = tested on: Leucine-rich repeat serine/threonine-protein kinase 2 (Homo sapiens), Q5S007 [G2019S]; test: (§1) Selectivity interaction (KinomeScan (DiscoverX)) EUB0000092b LRRK2; details: at 10 µM
# [4] = biological target: Leucine-rich repeat serine/threonine-protein kinase 2 (Homo sapiens, UniProt Q5S007); test: as §1; details: at 10 µM
# [5] = biological target: Bromodomain-containing protein 3 (Homo sapiens) (UniProt Q15059); test: Selectivity interaction (Human bromodomain panel (DSF assay)) EUB0000233b BRD3
# [6] = biological target: T1, Interleukin-1 receptor-associated kinase 3 (Homo sapiens) (UniProt Q9Y616); test: Selectivity interaction (KinomeScan (DiscoverX)) EUB0000655a IRAK3; details: at 10 µM
# T1 sequence (whole entry): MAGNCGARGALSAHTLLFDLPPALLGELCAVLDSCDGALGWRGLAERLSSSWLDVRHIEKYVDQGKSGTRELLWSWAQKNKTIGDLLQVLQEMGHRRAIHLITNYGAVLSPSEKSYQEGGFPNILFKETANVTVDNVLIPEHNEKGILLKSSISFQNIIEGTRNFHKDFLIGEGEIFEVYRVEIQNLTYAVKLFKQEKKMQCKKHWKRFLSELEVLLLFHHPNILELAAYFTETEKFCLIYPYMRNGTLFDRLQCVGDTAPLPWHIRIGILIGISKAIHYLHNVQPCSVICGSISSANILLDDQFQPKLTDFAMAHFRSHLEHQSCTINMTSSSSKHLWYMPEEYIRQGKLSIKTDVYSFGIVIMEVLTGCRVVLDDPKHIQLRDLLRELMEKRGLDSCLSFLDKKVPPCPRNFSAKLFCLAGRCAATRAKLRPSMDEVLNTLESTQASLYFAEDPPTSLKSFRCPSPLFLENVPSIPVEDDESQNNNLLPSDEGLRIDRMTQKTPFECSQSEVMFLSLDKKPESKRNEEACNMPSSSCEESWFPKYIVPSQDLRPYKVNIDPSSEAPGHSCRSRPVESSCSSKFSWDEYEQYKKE
# [7] = biological target: Serine/threonine-protein kinase SBK1 (Homo sapiens) (UniProt Q52WX2); test: Selectivity interaction (KinomeScan (DiscoverX)) EUB0001619a SBK1; details: at 1 µM
# [8] = biological target: Calcium/calmodulin-dependent protein kinase kinase 2 (Homo sapiens) (UniProt Q96RR4); test: Selectivity interaction (ActivX KiNativ screen (ex vivo kinase selectivity in human PBMCs)) EUB0001619a CAMKK2; type: cell-based; details: PBMC, at 1 µM
# [9] = biological target: Protein-tyrosine kinase 2-beta (Homo sapiens) (UniProt Q14289); test: Selectivity interaction (KinomeScan (DiscoverX)) EUB0000607a PTK2B; details: at 10 µM
# [10] = biological target: Ribosomal protein S6 kinase alpha-1 (Homo sapiens, UniProt Q15418); test: Selectivity interaction (KinomeScan (DiscoverX)) EUB0000607a RPS6KA1; details: at 10 µM
# [11] = biological target: Cyclin-dependent kinase 14 (Homo sapiens) (UniProt O94921); test: Selectivity interaction (KinomeScan (DiscoverX)) EUB0000607a CDK14; details: at 10 µM
# [12] = biological target: T2, Serine/threonine-protein kinase PLK4 (Homo sapiens) (UniProt O00444); test: Selectivity interaction (KinomeScan (DiscoverX)) EUB0000607a PLK4; details: at 10 µM
# T2 sequence (whole entry): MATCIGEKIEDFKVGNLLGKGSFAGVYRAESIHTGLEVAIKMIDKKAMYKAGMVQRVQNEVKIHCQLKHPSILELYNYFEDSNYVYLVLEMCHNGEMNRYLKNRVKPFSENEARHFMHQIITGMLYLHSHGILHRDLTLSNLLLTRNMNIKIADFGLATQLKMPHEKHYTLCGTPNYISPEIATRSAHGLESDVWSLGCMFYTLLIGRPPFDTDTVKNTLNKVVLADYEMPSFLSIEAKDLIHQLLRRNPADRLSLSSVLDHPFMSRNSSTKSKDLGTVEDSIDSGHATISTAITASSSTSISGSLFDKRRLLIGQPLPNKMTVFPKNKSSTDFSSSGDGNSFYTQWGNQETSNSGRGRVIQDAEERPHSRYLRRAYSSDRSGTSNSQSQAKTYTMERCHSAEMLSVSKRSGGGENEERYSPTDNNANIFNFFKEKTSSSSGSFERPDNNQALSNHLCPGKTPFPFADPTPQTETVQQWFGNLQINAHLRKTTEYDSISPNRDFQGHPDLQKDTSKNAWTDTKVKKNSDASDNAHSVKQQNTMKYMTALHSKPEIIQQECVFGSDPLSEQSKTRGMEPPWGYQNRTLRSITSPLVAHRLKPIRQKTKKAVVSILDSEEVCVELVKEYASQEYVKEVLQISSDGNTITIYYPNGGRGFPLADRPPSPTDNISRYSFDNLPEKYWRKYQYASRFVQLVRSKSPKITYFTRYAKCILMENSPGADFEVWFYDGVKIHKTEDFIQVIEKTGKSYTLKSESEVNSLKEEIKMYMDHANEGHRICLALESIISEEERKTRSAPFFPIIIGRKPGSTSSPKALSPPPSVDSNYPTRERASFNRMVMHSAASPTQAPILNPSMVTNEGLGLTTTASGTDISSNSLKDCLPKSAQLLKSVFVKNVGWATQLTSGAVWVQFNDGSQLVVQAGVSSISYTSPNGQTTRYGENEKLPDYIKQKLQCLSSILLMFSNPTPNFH
# [13] = tested on: Epidermal growth factor receptor (Homo sapiens), P00533 [UNDEFINED MUTATION]; test: Selectivity interaction (KinomeScan (DiscoverX)) EUB0000607a EGFR; details: at 10 µM
# [14] = biological target: T3, Casein kinase I isoform alpha-like (Homo sapiens) (UniProt Q8N752); test: Selectivity interaction (KinomeScan (DiscoverX)) EUB0000607a CSNK1A1L; details: at 10 µM
# T3 sequence (whole entry): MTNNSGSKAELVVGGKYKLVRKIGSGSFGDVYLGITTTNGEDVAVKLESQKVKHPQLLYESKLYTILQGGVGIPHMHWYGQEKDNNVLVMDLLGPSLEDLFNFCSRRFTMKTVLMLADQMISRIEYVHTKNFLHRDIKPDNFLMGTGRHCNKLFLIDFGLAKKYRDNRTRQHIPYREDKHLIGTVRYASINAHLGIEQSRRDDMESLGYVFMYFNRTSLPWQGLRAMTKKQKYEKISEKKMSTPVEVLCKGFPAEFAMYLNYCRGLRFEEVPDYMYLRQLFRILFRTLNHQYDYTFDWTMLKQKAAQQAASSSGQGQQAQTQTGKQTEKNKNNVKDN
# [15] = biological target: Fibroblast growth factor receptor 3 (Homo sapiens, UniProt P22607); test: (§2) Selectivity interaction (KinomeScan (DiscoverX)) EUB0000666a FGFR3; details: at 10 µM
# [16] = tested on: Fibroblast growth factor receptor 3 (Homo sapiens), P22607 [G697C]; test: as §2; details: at 10 µM
# Sequence of Fibroblast growth factor receptor 3 (Homo sapiens), P22607 [G697C] (P22607 whole entry G697C): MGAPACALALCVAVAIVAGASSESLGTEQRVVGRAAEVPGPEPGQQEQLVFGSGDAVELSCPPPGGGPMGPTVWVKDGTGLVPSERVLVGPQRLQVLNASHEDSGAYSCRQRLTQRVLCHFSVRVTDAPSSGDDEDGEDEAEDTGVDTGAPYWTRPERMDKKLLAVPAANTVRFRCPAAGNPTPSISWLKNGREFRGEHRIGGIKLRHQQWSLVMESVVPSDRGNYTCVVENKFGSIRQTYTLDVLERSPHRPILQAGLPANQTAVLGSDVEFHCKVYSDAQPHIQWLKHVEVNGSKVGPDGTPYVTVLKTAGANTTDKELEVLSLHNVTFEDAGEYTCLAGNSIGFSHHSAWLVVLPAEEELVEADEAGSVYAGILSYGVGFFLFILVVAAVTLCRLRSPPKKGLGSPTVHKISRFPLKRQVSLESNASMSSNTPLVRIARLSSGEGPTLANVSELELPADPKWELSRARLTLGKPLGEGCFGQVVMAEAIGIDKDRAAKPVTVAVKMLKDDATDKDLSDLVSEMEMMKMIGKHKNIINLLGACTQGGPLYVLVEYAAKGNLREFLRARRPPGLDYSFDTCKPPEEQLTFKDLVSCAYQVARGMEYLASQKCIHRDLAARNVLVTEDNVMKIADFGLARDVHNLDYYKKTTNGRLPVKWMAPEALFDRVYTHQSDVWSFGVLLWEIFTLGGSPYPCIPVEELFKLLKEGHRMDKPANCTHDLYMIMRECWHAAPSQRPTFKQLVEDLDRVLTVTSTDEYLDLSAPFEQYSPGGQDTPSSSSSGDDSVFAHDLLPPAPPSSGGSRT
# Sequence of Serine/threonine-protein kinase N1 (Q16512 2-942 limits assumed): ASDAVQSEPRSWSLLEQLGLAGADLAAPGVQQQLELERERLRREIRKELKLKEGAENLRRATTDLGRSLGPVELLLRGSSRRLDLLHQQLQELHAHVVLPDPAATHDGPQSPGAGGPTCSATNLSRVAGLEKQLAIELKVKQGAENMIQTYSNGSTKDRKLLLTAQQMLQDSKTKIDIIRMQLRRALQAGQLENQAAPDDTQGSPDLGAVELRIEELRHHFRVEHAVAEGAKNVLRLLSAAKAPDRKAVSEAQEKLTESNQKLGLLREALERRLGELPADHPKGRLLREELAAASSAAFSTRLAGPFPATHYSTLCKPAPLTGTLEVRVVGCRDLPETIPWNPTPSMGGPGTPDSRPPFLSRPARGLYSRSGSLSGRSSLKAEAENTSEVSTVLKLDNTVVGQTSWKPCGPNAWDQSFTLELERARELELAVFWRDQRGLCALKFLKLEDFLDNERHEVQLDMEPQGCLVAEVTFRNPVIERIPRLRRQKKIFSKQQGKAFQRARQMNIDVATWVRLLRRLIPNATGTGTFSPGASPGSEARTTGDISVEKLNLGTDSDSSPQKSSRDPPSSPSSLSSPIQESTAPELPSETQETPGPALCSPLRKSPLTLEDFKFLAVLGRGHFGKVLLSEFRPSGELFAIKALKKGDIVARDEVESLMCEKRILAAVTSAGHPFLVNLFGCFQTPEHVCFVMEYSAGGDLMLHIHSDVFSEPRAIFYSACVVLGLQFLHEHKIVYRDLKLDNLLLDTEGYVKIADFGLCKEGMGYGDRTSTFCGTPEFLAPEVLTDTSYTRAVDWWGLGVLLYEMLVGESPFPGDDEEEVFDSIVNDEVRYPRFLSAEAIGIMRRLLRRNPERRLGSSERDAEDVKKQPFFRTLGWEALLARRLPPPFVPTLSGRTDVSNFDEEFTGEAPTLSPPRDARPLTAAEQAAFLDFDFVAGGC
# Sequence of Epidermal growth factor receptor (Homo sapiens), P00533 [UNDEFINED MUTATION] (P00533 whole entry, looked up, change not shown, canonical isoform): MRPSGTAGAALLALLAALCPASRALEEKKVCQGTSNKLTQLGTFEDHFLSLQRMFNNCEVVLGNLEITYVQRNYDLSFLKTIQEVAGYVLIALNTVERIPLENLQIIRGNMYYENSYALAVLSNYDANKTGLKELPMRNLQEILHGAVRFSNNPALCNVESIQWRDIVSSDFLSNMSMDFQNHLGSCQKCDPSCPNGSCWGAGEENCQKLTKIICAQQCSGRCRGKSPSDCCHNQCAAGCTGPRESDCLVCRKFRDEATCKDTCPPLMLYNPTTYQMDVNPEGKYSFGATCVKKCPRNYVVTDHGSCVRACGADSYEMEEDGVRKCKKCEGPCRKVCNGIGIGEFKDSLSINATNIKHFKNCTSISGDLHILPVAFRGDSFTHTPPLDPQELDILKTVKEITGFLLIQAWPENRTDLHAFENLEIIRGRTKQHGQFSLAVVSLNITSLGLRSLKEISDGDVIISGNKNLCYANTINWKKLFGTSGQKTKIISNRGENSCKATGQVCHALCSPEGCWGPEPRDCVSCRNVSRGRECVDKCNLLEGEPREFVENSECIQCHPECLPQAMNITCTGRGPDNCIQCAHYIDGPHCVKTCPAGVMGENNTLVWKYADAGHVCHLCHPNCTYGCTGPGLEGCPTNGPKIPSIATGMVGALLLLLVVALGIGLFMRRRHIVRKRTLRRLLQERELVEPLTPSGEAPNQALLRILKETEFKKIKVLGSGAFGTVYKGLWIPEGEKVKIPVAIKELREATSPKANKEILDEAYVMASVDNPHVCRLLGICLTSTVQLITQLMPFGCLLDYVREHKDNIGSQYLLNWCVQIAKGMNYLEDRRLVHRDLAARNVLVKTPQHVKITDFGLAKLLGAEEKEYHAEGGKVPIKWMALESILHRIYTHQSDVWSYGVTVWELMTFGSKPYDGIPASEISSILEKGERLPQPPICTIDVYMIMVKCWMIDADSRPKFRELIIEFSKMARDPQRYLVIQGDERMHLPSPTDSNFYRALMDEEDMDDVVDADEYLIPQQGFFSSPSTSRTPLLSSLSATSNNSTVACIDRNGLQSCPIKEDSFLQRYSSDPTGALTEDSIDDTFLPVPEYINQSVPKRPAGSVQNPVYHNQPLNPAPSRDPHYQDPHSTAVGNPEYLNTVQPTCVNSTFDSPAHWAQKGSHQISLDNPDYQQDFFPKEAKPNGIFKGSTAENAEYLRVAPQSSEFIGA
# Sequence of Cyclin-dependent kinase 14 (Homo sapiens) (O94921 whole entry): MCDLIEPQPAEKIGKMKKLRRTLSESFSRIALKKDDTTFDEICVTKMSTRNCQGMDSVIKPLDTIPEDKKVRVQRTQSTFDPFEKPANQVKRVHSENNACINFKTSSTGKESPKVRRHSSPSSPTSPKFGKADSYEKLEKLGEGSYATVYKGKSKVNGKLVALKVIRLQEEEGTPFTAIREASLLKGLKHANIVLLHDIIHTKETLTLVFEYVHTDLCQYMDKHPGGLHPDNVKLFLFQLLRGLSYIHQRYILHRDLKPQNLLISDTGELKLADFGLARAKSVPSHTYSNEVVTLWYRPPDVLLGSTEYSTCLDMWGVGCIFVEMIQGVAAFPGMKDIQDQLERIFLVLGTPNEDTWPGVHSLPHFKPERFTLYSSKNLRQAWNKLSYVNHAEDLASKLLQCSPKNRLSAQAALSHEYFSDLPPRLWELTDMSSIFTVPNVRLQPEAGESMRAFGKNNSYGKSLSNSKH
# Sequence of Bromodomain-containing protein 3 (Homo sapiens) (Q15059 2-726 limits assumed): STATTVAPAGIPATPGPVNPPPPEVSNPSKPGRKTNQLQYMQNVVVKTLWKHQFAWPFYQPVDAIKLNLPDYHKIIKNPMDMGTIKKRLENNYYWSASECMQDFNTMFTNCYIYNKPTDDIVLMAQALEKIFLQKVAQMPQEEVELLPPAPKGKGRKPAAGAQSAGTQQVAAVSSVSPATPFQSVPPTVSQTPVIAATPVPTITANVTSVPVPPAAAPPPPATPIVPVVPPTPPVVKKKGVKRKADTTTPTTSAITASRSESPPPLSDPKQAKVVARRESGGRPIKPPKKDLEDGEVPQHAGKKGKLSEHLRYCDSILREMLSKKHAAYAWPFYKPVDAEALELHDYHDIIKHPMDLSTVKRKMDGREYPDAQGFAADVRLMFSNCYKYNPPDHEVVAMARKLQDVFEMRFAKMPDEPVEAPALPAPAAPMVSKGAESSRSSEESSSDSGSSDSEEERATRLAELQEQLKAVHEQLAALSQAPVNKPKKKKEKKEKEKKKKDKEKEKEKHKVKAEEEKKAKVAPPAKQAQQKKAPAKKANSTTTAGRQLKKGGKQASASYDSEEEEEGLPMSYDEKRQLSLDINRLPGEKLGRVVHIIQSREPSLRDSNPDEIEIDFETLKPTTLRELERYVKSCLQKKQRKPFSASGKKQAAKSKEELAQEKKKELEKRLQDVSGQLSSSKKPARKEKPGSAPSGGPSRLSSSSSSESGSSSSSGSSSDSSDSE
# Sequence of Ribosomal protein S6 kinase alpha-1 (Q15418 whole entry): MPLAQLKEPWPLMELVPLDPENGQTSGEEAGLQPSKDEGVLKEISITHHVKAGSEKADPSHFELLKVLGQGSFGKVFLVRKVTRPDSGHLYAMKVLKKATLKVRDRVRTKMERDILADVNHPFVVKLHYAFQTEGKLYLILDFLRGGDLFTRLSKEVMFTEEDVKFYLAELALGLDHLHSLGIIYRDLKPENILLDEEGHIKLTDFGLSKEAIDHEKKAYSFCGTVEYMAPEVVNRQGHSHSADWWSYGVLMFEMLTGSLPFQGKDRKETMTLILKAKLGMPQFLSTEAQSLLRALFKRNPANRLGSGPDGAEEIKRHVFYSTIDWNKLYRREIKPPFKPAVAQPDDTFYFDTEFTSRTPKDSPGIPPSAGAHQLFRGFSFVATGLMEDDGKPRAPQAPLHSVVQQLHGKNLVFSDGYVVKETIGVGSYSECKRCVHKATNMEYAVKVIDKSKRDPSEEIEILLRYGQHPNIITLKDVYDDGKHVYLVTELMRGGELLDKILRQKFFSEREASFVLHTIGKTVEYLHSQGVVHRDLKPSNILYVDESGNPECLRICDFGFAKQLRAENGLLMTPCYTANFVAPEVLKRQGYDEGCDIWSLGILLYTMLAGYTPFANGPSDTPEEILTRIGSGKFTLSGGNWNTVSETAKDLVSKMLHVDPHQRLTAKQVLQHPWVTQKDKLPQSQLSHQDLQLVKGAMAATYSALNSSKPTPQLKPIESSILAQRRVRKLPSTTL
structure (smiles),measurement,setting,value
CC(=O)Nc1cccc(-n2c(=O)n(C3CC3)c(=O)c3c(Nc4ccc(I)cc4F)n(C)c(=O)c(C)c32)c1,% of control,[1],107%
C=CC(=O)Nc1cccc(C(=O)Nc2ccc(Nc3cc(-c4[nH]c(SC)nc4C)ccn3)cc2)c1,% of control,[2]; at 1 µM,100%
same,% of control,[2]; at 5 µM,91%
CCC(=O)N1CCN(c2ccc(-n3c(=O)ccc4cnc5ccc(-c6cnc7ccccc7c6)cc5c43)cc2C(F)(F)F)CC1,% of control,[3],99%
same,% of control,[4],81%
CN(C)CCCOc1ccc(-c2cc(NCCCn3cccn3)nc(S(C)(=O)=O)n2)cc1,dTM,[5],< 2 K
CN(C)CCOc1ccc(-c2nc(-c3ccncc3)c(-c3ccc4c(c3)CC/C4=N\O)[nH]2)cc1,% of control,[6],71%
N#Cc1cccc(-c2c[nH]c3ncnc(N4CCOCC4)c23)c1,% of control,[7],100%
same,% of inhibition,[8],49%
CNC(=O)Nc1ccc(-c2nc(N3CC4CCC(C3)O4)c3cnn(C4CCC5(CC4)OCCO5)c3n2)cc1,% of control,[9],100%
same,% of control,[10],100%
same,% of control,[11],94%
same,% of control,[12],75%
same,% of control,[13],55%
same,% of control,[14],100%
O=C(NOC[C@H](O)CO)c1ccc(F)c(F)c1Nc1ccc(I)cc1F,% of control,[15],100%
same,% of control,[16],88%
